Test results reported in patent publication US4238620A, “Dibenz[b,f]oxepin and dibenzo[b,f]thiepin derivatives, process for preparation thereof, method of using the same, and compositions thereof” (priority 1978, dated 1980).
“Also recorded” adds a separate entry of the source.

Assays:
[1] = tested on: Carrageenin-induced hind paw oedema in rats; experiment: Carrageenin-induced hind paw oedema in rats (CAR method), acute inflammation; type: in vivo; details: Rattus norvegicus, po, read-out: Anti-inflammatory activity ED50, acute inflammation, CAR
Description: (§1) (1) Effect on acute inflammation:
(a) Carrageenin-induced hind paw oedema in rats (CAR method)
The test was carried out according to the method described in Proc. Soc. Exp. Biol. Med., 111, 544 (1962).

[2] = tested on: Ultraviolet-induced erythema in guinea-pigs; experiment: Ultraviolet-induced erythema in guinea-pigs (UVE method), acute inflammation; type: in vivo; details: Cavia porcellus, po, read-out: Anti-inflammatory activity ED50, acute inflammation, UVE
Description: as §1
(b) Ultraviolet-induced erythema in guinea-pigs (UVE method)
The test was carried out according to the method described in Arch. Int. Pharmacodyn. Ther., 116, 261 (1958).

[3] = tested on: adjuvant-induced arthritis in rats; experiment: Therapeutic activity on adjuvant-induced arthritis in rats (AAT method), subacute and chronic inflammation; type: in vivo; details: Rattus norvegicus, po, read-out: Minimum Effective Dose, subacute and chronic inflammation, AAT*
Description: (§2) (2) Effect on subacute and chronic inflammations:
(a) Therapeutic activity on adjuvant-induced arthritis in rats (AAT method)
The test was carried out according to the method described in Brit. J. Pharmacol., 21, 127 (1963) and Japan J. Pharmacol., 23, 58 (1973).

[4] = tested on: Felt pellet-induced granuloma formation in rats; experiment: Felt pellet-induced granuloma formation in rats (FGF method), subacute and chronic inflammation; type: in vivo; details: Rattus norvegicus, po, read-out: Minimum Effective Dose, subacute and chronic inflammation, FGF*
Description: as §2
(b) Felt pellet-induced granuloma formation in rats (FGF method)
The test was carried out according to the method described in J. Amer. Pharm. Assoc., 46, 515 (1957) and Chem. Pharm. Bull., 23, 1446 (1975).

[5] = tested on: AgNO3-induced joint pain in rats; experiment: AgNO3-induced joint pain in rats (AGP method), analgesic activity; type: in vivo; details: Rattus norvegicus, po, read-out: Analgesic activity ED50, AGP
Description: (§3) TEST 2. ANALGESIC ACTIVITY
(a) AgNO3 -induced joint pain in rats (AGP method)
The test was carried out according to the method described in J. Pharmacol. Expt. Ther., 98, 19 (1950)

[6] = tested on: Acetic acid (AcOH)-induced writhing in rats; experiment: Acetic acid (AcOH)-induced writhing in rats (ACW method), analgesic activity; type: in vivo; details: Rattus norvegicus, po, read-out: Analgesic activity ED50, ACW
Description: as §3
(b) Acetic acid (AcOH)-induced writhing in rats (ACW method)
The test was carried out according to the method described in Arzneim. Forsch., 25, 1505 (1975).

[7] = tested on: Yeast-induced fever in rats; experiment: Yeast-induced fever in rats (YEF method), antipyretic activity; type: in vivo; details: Rattus norvegicus, po, read-out: Antipyretic activity ED50, YEF
Description: TEST 3. ANTIPYRETIC ACTIVITY
Yeast-induced fever in rats (YEF method)
The test was carried out according to the method described in Arzneim. Forsch., 13, 338 (1963).

[8] = Gastrointestinal ulcer formation in fed rats (ulcerogenicity); type: in vivo; details: rat, in vivo, po, fed rats; read-out: UD50 (50% ulcer forming dose)
Description: (§4) TEST 4. ULCEROGENICITY IN GASTROINTESTINAL TRACT
(§5) Gastrointestinal ulcer formation in fed rats
(§6) The test was carried out according to the method described in Science, 170, 183 (1970).

[9] = tested on: Gastrointestinal ulcer formation in fed rats; experiment: as above; type: in vivo
Description: as §4, §5, §6

in vivo [10] = details: rat, po, rats, once daily for 5 days, mortality on 6th day, read-out: LD50 Repeated
Description: (§7) (b) Repeated administrations in rats
(§8) Test compounds were orally administered once daily for 5 days, and LD50 -value was calculated from the mortality on the 6th day.

[11] = Overall comparison of anti-inflammatory, analgesic and antipyretic activities (Tests 1 to 3); type: in vivo, rats; guinea-pigs; details: for anti-inflammatory, analgesic and antipyretic activities compared with indomethacin: vs indomethacin (compound 3)
Excerpt: (§9) From these diagrams, the correlation between the pharmacological activity of each compound and its ulcerogenicity and toxicity, i.e. the safety margin of each compound, can be clearly seen. In these Figures, the lines and letters have the following meanings:
(§10) The following conclusions can be drawn from Tables I to III and FIGS. 1 and 2. In the following description, the therapeutic index means LD50 /ED50 (or MED), and the safety index means UD50 /ED50 (or MED). The safety margin of a given compound is broader when it has larger therapeutic and or safety indices.

[12] = type: in vivo; details: for therapeutic index compared with indomethacin: vs indomethacin
Excerpt: In the following description, the therapeutic index means LD50 /ED50 (or MED), and the safety index means UD50 /ED50 (or MED).

[13] = Safety index (UD50/ED50 or MED), separation of activity from ulcerogenicity; type: in vivo; details: for separation of anti-inflammatory, analgesic and antipyretic activities from ulcerogenicity: FIGS. 1 and 2, vs indomethacin
Excerpt: as §9, §10

rats = experiment: Overall comparison of lethal toxicity (Test 5); type: in vivo; details: for toxicity compared with indomethacin (in words): vs indomethacin
Description: (a) Single administration in rats
as §7, §8

in vivo [14] = details: rat, po, rats, single administration, 7th day, read-out: LD50 Single
[15] = cited from earlier work
[16] = cited from earlier work; remark: listed apart in the source

Row | SMILES | ED50 [1] | ED50 [2] | minimal effective dose [3] | minimal effective dose [4] | ED50 [5] | ED50 [6] | ED50 [7] | TD50 [8] | LD50 at 144 h (in vivo [10]) | anti-inflammatory, analgesic and antipyretic activities compared with indomethacin [11] | therapeutic index compared with indomethacin [12] | separation of anti-inflammatory, analgesic and antipyretic activities from ulcerogenicity [13] | toxicity compared with indomethacin (in words) (rats) | further results
1 | Cc1ccc2c(c1)CC(=O)c1cc(C(C)C(=O)O)ccc1S2 (racemic) [compound C, dl-2-(8-Methyl-10,11-dihydro-11-oxodibenzo[b,f]thiepin-2-yl)propionic acid] | 2.08 mg/kg | 0.85 mg/kg | < 0.2 mg/kg/day | 1 mg/kg/day | 1.41 mg/kg | 0.84 mg/kg | 0.015 mg/kg | 2.76 mg/kg | > 12 mg/kg | equivalent or superior to those of indomethacin | far larger therapeutic indices than indomethacin | more separated from ulcerogenicity in the gastrointestinal tract than in indomethacin; also recorded: Especially good separation | far weaker than those of indomethacin | ulcerogenicity relative to compound 2 ([9]; fraction of that of compound 2): about 1/4; pharmacological activities compared with compound 2 ([11]; vs compound 2): comparable or slightly inferior to those of compound 2; average therapeutic index relative to compound 2 ([12]; LD50/ED50 (or MED), vs compound 2): more than 5 times; breadth of safety margin compared with compound 2 ([12]; safety margin, vs compound 2): far superior to compound 2; average safety index relative to compound 2 ([13]; UD50/ED50 (or MED), vs compound 2): about 4 times; toxicity relative to compound 2 (rats; fraction of that of compound 2): less than 1/6
2 | Cc1ccc2c(c1)CC(=O)c1cc(C(C)C(=O)OCCOCCO)ccc1O2 (racemic) [compound E, 2-(2-Hydroxyethoxy)ethyl dl-2-(8-methyl-10,11-dihydro-11-oxodibenz[b,f]oxepin-2-yl)propionate] | 3.61 mg/kg | 1.41 mg/kg | 0.2 mg/kg/day | 2 mg/kg/day | 3.8 mg/kg | 0.27 mg/kg | 0.055 mg/kg | 4.04 mg/kg | > 16 mg/kg | equivalent or superior to those of indomethacin | far larger therapeutic indices than indomethacin | more separated from ulcerogenicity in the gastrointestinal tract than in indomethacin; also recorded: Especially good separation | far weaker than those of indomethacin | ulcerogenicity and toxicity compared with compound A ([9]; ulcerogenicity together with toxicity, vs compound A): weaker than those of compound A; LD50 at 168 h (in vivo [14]): 219 mg/kg; pharmacological activities compared with compound 1 ([11]; vs compound 1): equivalent to, or more potent, than those of compound 1; pharmacological activities compared with compound A ([11]; vs compound A): somewhat inferior to those of compound A; average safety and therapeutic indices compared with compound A ([12]; safety and therapeutic indices, vs compound A): comparable to those of compound A; breadth of safety margin compared with compound 1 ([12]; safety margin, vs compound 1): better
3 | O=C(O)Cc1ccc2c(c1)CC(=O)c1ccccc1S2 [10,11-dihydro-10-oxodibenzo[b,f]thiepin-2-acetic acid] |  |  |  |  |  |  |  |  |  |  |  |  |  | anti-inflammatory activity relative to phenylbutazone [15]: 0.4 time; analgesic activity relative to aspirin [16]: equivalent to that of aspirin
